This experiment concerns the target T1, Human G288S SLACK (Homo sapiens, UniProt Q5JUK3, G269S).
T1 construct: host or cells: CHO-K1
T1 sequence (Q5JUK3 1-1235 isoform Q5JUK3-3 G288S): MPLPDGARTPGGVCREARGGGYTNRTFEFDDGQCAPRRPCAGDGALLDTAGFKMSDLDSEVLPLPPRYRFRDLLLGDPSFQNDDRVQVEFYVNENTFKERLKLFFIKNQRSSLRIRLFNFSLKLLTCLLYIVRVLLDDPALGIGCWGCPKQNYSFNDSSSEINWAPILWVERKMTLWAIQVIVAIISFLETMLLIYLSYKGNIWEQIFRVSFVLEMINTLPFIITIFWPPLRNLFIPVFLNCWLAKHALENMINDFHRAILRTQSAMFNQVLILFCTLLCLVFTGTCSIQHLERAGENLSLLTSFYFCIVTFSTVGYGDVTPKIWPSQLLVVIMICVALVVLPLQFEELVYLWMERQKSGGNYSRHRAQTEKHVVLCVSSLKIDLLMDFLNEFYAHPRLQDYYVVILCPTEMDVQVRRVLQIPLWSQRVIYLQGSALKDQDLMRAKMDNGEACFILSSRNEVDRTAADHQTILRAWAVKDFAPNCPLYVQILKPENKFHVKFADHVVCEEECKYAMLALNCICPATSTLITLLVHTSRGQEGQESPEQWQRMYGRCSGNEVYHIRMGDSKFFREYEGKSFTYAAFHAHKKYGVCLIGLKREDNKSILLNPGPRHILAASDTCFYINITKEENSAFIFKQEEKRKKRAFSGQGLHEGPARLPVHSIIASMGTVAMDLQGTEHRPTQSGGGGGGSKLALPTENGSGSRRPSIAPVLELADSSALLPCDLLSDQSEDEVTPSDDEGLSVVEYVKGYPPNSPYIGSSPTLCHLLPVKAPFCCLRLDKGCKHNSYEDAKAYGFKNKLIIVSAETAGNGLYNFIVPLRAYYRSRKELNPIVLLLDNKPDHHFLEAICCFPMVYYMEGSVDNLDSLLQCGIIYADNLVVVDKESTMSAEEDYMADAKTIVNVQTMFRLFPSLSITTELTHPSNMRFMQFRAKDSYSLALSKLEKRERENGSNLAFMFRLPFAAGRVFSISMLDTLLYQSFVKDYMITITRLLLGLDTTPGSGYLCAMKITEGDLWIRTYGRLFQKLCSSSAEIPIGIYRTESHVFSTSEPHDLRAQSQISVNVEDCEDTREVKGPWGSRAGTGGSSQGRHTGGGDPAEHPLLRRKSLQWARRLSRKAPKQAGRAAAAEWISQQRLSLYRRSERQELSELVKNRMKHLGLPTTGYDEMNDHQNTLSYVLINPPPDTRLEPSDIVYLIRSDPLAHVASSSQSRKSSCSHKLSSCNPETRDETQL
Description: Whole-cell APC in CHO-K1 cells stably expressing human G288S SLACK. The experiment is classed as cell-based. From the text: Finally, we chose to screen the same two compounds versus mouse SLACK and two clinically relevant GOF SLACK mutants in APC assays utilizing CHO-K1 cells stably expressing these targets (Table 7). Screening versus the mouse homolog was deemed important for evaluating the potential of the series to ultimately lead to a useful in vivo tool via further optimization.
Stably transfected monoclonal HEK293 cell lines expressing SLICK, Maxi-K α1/β3, Maxi-K α1/β4, CaV3.2, GIRK 1/2, KV2.1, KV7.2, NaV1.7, and TASK-1 were generated as previously described. Stably transfected monoclonal HEK293 cell lines expressing hERG were generated as previously described. CHO-K1 cells expressing human SLACK and disease-associated human SLACK mutations, G288S and A934T, were generated by transfecting a PiggyBac TRE mammalian expression vector (VectorBuilder, Chicago, IL, USA) containing KCNT1. FuGENE 6 (Promega, Madison, WI, USA) transfection reagent and protocol, together with Opti-MEM (Thermo Fisher Scientific, Waltham, MA, USA), were utilized according to the manufacturer’s instructions.
Automated patch clamp recording was performed with a SyncroPatch 768 PE system (Nanion, Munich, Germany) as previously described. Whole-cell recordings were performed at room temperature. Cells were harvested by first washing with PBS without Mg^2+ or Ca^2+ (Gibco, Billings, MT, USA) to remove cell culture medium, followed by dissociation with TryPLE (Gibco, Billings, MT, USA). Cells were then resuspended and diluted to 200,000 cells/mL in external solution. External solution contained 105 mM NaCl, 4 mM KCl, 1 mM MgCl2, 5 mM CaCl2, 10 mM HEPES, 40 mM N-Methyl-D-glucamine chloride, titrated to pH 7.4 with NaOH and osmolarity of 300 mOsm/kg; internal solution contained 70 mM NaCl, 70 mM KF, 10 mM KCl, 5 mM EGTA, 5mM HEPES, titrated to a pH 7.2 with KOH and osmolarity of 295 mOsm/kg.
The APC protocol was set as following: Cells were held at […] −80 mV for 100 ms, then a ramp protocol was performed from −100 mV to 80 mV at 0.4 mV/ms, hold the cell at −80 mV for another 100 ms, then steps were performed at −20 mV, 0 mV, +20 mV, +40 mV, and +60 mV for 100 ms of each step. Whole-cell currents were measured at 0 mV and normalized to current after external buffer addition.

Each structure is given as a SMILES string.

With `CC(C)(Oc1ccc(Cl)cc1)C(=O)Nc1cnc(Oc2c(F)cccc2F)nc1` [Analog 40], the “G288S SLACK inhibition, result in words” value (APC, CHO-K1 cells) was “inactive”.

By IC50 is commonly meant the midpoint of a concentration-inhibition curve. Low readings indicate greater potency in that assay, high ones weaker potency in that assay. As to `CN(c1ccc(C#N)cc1)c1ncc(NC(=O)C(C)(C)Oc2ccc(Cl)cc2)cn1` [Analog 66], the “G288S SLACK inhibition, result in words” value (APC, CHO-K1 cells) is given as “only weakly active”. The same compound returned an IC50 (APC, CHO-K1 cells, Human G288S SLACK) above 10 µM. Moreover, the Imax (Human G288S SLACK, maximum inhibition at 30 µM standardized to VU0606170 (set at 100%)) came out at 40%.

Values taken from paper PMC11643494, “Structure–Activity Relationship Studies in a Series of 2-Aryloxy-N-(pyrimidin-5-yl)acetamide Inhibitors of SLACK Potassium Channels” (Molecules, 2024).
